Reference: US6525001B1, “Substituted pyrimidine and pyridine herbicides” (Mid-American Commercialization Corporation, priority 1997, dated 2003)

Experiments:
Type in all cases: in vivo
Set-up in all cases: key: 0 is no effect; 10 is complete control
[1] = system: blackgrass (Alopecurus myosuroides); test: Test B pre-/postemergence
Method in brief: (§1)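 Scored visually 0 (none) to 10 (complete control) against untreated plants after twelve to sixteen greenhouse days. Test chemicals, formulated in surfactant-containing non-phytotoxic solvent, applied to soil after planting and, separately, onto 1- to 4-leaf (2–18 cm) plants.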

[2] = system: broadleaf signalgrass (Brachiaria decumbens); test: Test B pre-/postemergence
Method in brief: as §1

[3] = system: bamyardgrass (Echinochloa crus-galli); test: Test B flood test; settings: for Plant response rating, Barnyardgrass: Postemergence (flood test species)
Method in brief: (§2)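 Flood test on plants grown to the 2-leaf stage; treated plants kept in greenhouse twelve to sixteen days, then visually rated against controls on a 0 (no effect) to 10 (complete control) scale.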

[4] = system: smallflower flatsedge (Cyperus difformis); test: Test B flood test; settings: for Plant response rating, S. Flatsedge: Postemergence (flood test species)
Method in brief: as §2

[5] = system: rice (Oryza sativa); test: Test B flood test; settings: for Plant response rating, Rice: Postemergence (flood test species)
Method in brief: as §2

[6] = system: duck salad (Heteranthera limosa); test: Test B flood test; settings: for Plant response rating, Ducksalad: Postemergence (flood test species)
Method in brief: as §2

[7] = Preemergence, Rate 62 g/ha, scale of 0 to 10
[8] = Rate 62 g/ha, Postemergence (flood test)
[9] = Rate 125 g/ha, Postemergence section (flood test species)

## Cc1cnc(-n2cnc(C(F)(F)F)c2)nc1C(=O)c1cccc(OC(F)(F)F)c1 [Compound 63]
[1]; [7]
  Plant response rating, Blackgrass: 2
[1]; Rate 62 g/ha, Postemergence
  Blackgrass plant response rating: 2
[1]; Rate 125 g/ha, Postemergence
  Blackgrass plant response rating: 3
[1]; Rate 125 g/ha, Preemergence
  Plant response rating, Blackgrass: 3
[1]; Rate 250 g/ha, Postemergence
  Plant response rating, Blackgrass: 3
[1]; Rate 250 g/ha, Preemergence
  Plant response rating, Blackgrass: 8
[1]; Rate 500 g/ha, Postemergence
  Plant response rating, Blackgrass: 6
[1]; Rate 500 g/ha, Preemergence
  Plant response rating, Blackgrass: 9
[2]; Rate 62 g/ha, Postemergence
  B. signalgrass plant response rating: 4
[2]; Rate 62 g/ha, Preemergence
  B. signalgrass plant response rating: 4
[2]; Rate 125 g/ha, Postemergence
  B. signalgrass plant response rating: 3
[2]; Rate 125 g/ha, Preemergence
  Plant response rating, B. signalgrass: 7
[2]; Rate 250 g/ha, Postemergence
  Plant response rating, B. signalgrass: 4
[2]; Rate 250 g/ha, Preemergence
  Plant response rating, B. signalgrass: 8
[2]; Rate 500 g/ha, Postemergence
  Plant response rating, B. signalgrass: 5
[2]; Rate 500 g/ha, Preemergence
  Plant response rating, B. signalgrass: 9
[3]; [8]
  Barnyardgrass plant response rating: 1
[3]; [9]
  Barnyardgrass plant response rating: 3
[3]; Rate 250 g/ha
  Plant response rating, Barnyardgrass: 3
[3]; Rate 500 g/ha
  Plant response rating, Barnyardgrass: 3
[4]; [8]
  S. Flatsedge plant response rating: 4
[4]; [9]
  S. Flatsedge plant response rating: 7
[4]; Rate 250 g/ha
  Plant response rating, S. Flatsedge: 8
[4]; Rate 500 g/ha
  Plant response rating, S. Flatsedge: 9
[5]; [8]
  Rice plant response rating: 0
[5]; [9]
  Rice plant response rating: 0
[5]; Rate 250 g/ha
  Plant response rating, Rice: 1
[5]; Rate 500 g/ha
  Plant response rating, Rice: 1
[6]; [8]
  Ducksalad plant response rating: 0
[6]; [9]
  Ducksalad plant response rating: 0
[6]; Rate 250 g/ha
  Plant response rating, Ducksalad: 2
[6]; Rate 500 g/ha
  Plant response rating, Ducksalad: 6

## Cc1cnc(-n2cnc(C(F)(F)F)n2)nc1C(=O)c1cccc(OC(F)(F)F)c1 [Compound 64]
[1]; [7]
  Plant response rating, Blackgrass: 5
[1]; Rate 62 g/ha, Postemergence
  Blackgrass plant response rating: 4
[1]; Rate 125 g/ha, Postemergence
  Blackgrass plant response rating: 5
[1]; Rate 125 g/ha, Preemergence
  Plant response rating, Blackgrass: 6
[1]; Rate 250 g/ha, Postemergence
  Plant response rating, Blackgrass: 7
[1]; Rate 250 g/ha, Preemergence
  Plant response rating, Blackgrass: 6
[1]; Rate 500 g/ha, Postemergence
  Plant response rating, Blackgrass: 9
[1]; Rate 500 g/ha, Preemergence
  Plant response rating, Blackgrass: 9
[2]; Rate 62 g/ha, Postemergence
  B. signalgrass plant response rating: 4
[2]; Rate 62 g/ha, Preemergence
  B. signalgrass plant response rating: 8
[2]; Rate 125 g/ha, Postemergence
  B. signalgrass plant response rating: 5
[2]; Rate 125 g/ha, Preemergence
  Plant response rating, B. signalgrass: 9
[2]; Rate 250 g/ha, Postemergence
  Plant response rating, B. signalgrass: 6
[2]; Rate 250 g/ha, Preemergence
  Plant response rating, B. signalgrass: 10
[2]; Rate 500 g/ha, Postemergence
  Plant response rating, B. signalgrass: 8
[2]; Rate 500 g/ha, Preemergence
  Plant response rating, B. signalgrass: 10
[3]; [8]
  Barnyardgrass plant response rating: 2
[3]; [9]
  Barnyardgrass plant response rating: 3
[3]; Rate 250 g/ha
  Plant response rating, Barnyardgrass: 4
[3]; Rate 500 g/ha
  Plant response rating, Barnyardgrass: 5
[4]; [8]
  S. Flatsedge plant response rating: 8
[4]; [9]
  S. Flatsedge plant response rating: 8
[4]; Rate 250 g/ha
  Plant response rating, S. Flatsedge: 8
[4]; Rate 500 g/ha
  Plant response rating, S. Flatsedge: 9
[5]; [8]
  Rice plant response rating: 1
[5]; [9]
  Rice plant response rating: 1
[5]; Rate 250 g/ha
  Plant response rating, Rice: 2
[5]; Rate 500 g/ha
  Plant response rating, Rice: 3
[6]; [8]
  Ducksalad plant response rating: 4
[6]; [9]
  Ducksalad plant response rating: 6
[6]; Rate 250 g/ha
  Plant response rating, Ducksalad: 6
[6]; Rate 500 g/ha
  Plant response rating, Ducksalad: 9

## Cc1cnc(-n2cnc(C(F)(F)F)n2)nc1C(=O)c1cccc(C(F)(F)F)c1 [Compound 67]
[1]; [7]
  Plant response rating, Blackgrass: 3
[1]; Rate 62 g/ha, Postemergence
  Blackgrass plant response rating: 5
[1]; Rate 125 g/ha, Postemergence
  Blackgrass plant response rating: 8
[1]; Rate 125 g/ha, Preemergence
  Plant response rating, Blackgrass: 4
[1]; Rate 250 g/ha, Postemergence
  Plant response rating, Blackgrass: 9
[1]; Rate 250 g/ha, Preemergence
  Plant response rating, Blackgrass: 8
[1]; Rate 500 g/ha, Postemergence
  Plant response rating, Blackgrass: 10
[1]; Rate 500 g/ha, Preemergence
  Plant response rating, Blackgrass: 9
[2]; Rate 62 g/ha, Postemergence
  B. signalgrass plant response rating: 5
[2]; Rate 62 g/ha, Preemergence
  B. signalgrass plant response rating: 8
[2]; Rate 125 g/ha, Postemergence
  B. signalgrass plant response rating: 7
[2]; Rate 125 g/ha, Preemergence
  Plant response rating, B. signalgrass: 9
[2]; Rate 250 g/ha, Postemergence
  Plant response rating, B. signalgrass: 7
[2]; Rate 250 g/ha, Preemergence
  Plant response rating, B. signalgrass: 10
[2]; Rate 500 g/ha, Postemergence
  Plant response rating, B. signalgrass: 9
[2]; Rate 500 g/ha, Preemergence
  Plant response rating, B. signalgrass: 10
[3]; [8]
  Barnyardgrass plant response rating: 3
[3]; [9]
  Barnyardgrass plant response rating: 3
[3]; Rate 250 g/ha
  Plant response rating, Barnyardgrass: 5
[3]; Rate 500 g/ha
  Plant response rating, Barnyardgrass: 6
[4]; [8]
  S. Flatsedge plant response rating: 5
[4]; [9]
  S. Flatsedge plant response rating: 8
[4]; Rate 250 g/ha
  Plant response rating, S. Flatsedge: 9
[4]; Rate 500 g/ha
  Plant response rating, S. Flatsedge: 9
[5]; [8]
  Rice plant response rating: 1
[5]; [9]
  Rice plant response rating: 2
[5]; Rate 250 g/ha
  Plant response rating, Rice: 2
[5]; Rate 500 g/ha
  Plant response rating, Rice: 4
[6]; [8]
  Ducksalad plant response rating: 3
[6]; [9]
  Ducksalad plant response rating: 4
[6]; Rate 250 g/ha
  Plant response rating, Ducksalad: 6
[6]; Rate 500 g/ha
  Plant response rating, Ducksalad: 8

## Cc1cnc(-n2ccc(C(F)(F)C(F)(F)F)n2)nc1C(=O)c1cccc(C(F)(F)F)c1 [Compound 68]
[1]; [7]
  Plant response rating, Blackgrass: 3
[1]; Rate 62 g/ha, Postemergence
  Blackgrass plant response rating: 2
[1]; Rate 125 g/ha, Postemergence
  Blackgrass plant response rating: 3
[1]; Rate 125 g/ha, Preemergence
  Plant response rating, Blackgrass: 5
[1]; Rate 250 g/ha, Postemergence
  Plant response rating, Blackgrass: 4
[1]; Rate 250 g/ha, Preemergence
  Plant response rating, Blackgrass: 7
[1]; Rate 500 g/ha, Postemergence
  Plant response rating, Blackgrass: 5
[1]; Rate 500 g/ha, Preemergence
  Plant response rating, Blackgrass: 7
[2]; Rate 62 g/ha, Postemergence
  B. signalgrass plant response rating: 2
[2]; Rate 62 g/ha, Preemergence
  B. signalgrass plant response rating: 5
[2]; Rate 125 g/ha, Postemergence
  B. signalgrass plant response rating: 3
[2]; Rate 125 g/ha, Preemergence
  Plant response rating, B. signalgrass: 8
[2]; Rate 250 g/ha, Postemergence
  Plant response rating, B. signalgrass: 3
[2]; Rate 250 g/ha, Preemergence
  Plant response rating, B. signalgrass: 9
[2]; Rate 500 g/ha, Postemergence
  Plant response rating, B. signalgrass: 5
[2]; Rate 500 g/ha, Preemergence
  Plant response rating, B. signalgrass: 10
[3]; [8]
  Barnyardgrass plant response rating: 2
[3]; [9]
  Barnyardgrass plant response rating: 3
[3]; Rate 250 g/ha
  Plant response rating, Barnyardgrass: 4
[3]; Rate 500 g/ha
  Plant response rating, Barnyardgrass: 4
[4]; [8]
  S. Flatsedge plant response rating: 5
[4]; [9]
  S. Flatsedge plant response rating: 7
[4]; Rate 250 g/ha
  Plant response rating, S. Flatsedge: 7
[4]; Rate 500 g/ha
  Plant response rating, S. Flatsedge: 7
[5]; [8]
  Rice plant response rating: 0
[5]; [9]
  Rice plant response rating: 1
[5]; Rate 250 g/ha
  Plant response rating, Rice: 3
[5]; Rate 500 g/ha
  Plant response rating, Rice: 3
[6]; [8]
  Ducksalad plant response rating: 0
[6]; [9]
  Ducksalad plant response rating: 1
[6]; Rate 250 g/ha
  Plant response rating, Ducksalad: 2
[6]; Rate 500 g/ha
  Plant response rating, Ducksalad: 3

## Cc1cnc(-c2ccc(C(F)(F)F)cc2)nc1C(=O)c1cccc(OC(F)(F)F)c1 [Compound 75]
[1]; [7]
  Plant response rating, Blackgrass: 3
[1]; Rate 62 g/ha, Postemergence
  Blackgrass plant response rating: 3
[1]; Rate 125 g/ha, Postemergence
  Blackgrass plant response rating: 6
[1]; Rate 125 g/ha, Preemergence
  Plant response rating, Blackgrass: 8
[1]; Rate 250 g/ha, Postemergence
  Plant response rating, Blackgrass: 8
[1]; Rate 250 g/ha, Preemergence
  Plant response rating, Blackgrass: 9
[1]; Rate 500 g/ha, Preemergence
  Plant response rating, Blackgrass: 10
[2]; Rate 62 g/ha, Postemergence
  B. signalgrass plant response rating: 2
[2]; Rate 62 g/ha, Preemergence
  B. signalgrass plant response rating: 8
[2]; Rate 125 g/ha, Postemergence
  B. signalgrass plant response rating: 2
[2]; Rate 125 g/ha, Preemergence
  Plant response rating, B. signalgrass: 9
[2]; Rate 250 g/ha, Postemergence
  Plant response rating, B. signalgrass: 3
[2]; Rate 250 g/ha, Preemergence
  Plant response rating, B. signalgrass: 9
[2]; Rate 500 g/ha, Preemergence
  Plant response rating, B. signalgrass: 9
[3]; [8]
  Barnyardgrass plant response rating: 2
[3]; [9]
  Barnyardgrass plant response rating: 2
[3]; Rate 250 g/ha
  Plant response rating, Barnyardgrass: 3
[4]; [8]
  S. Flatsedge plant response rating: 0
[4]; [9]
  S. Flatsedge plant response rating: 0
[4]; Rate 250 g/ha
  Plant response rating, S. Flatsedge: 1
[5]; [8]
  Rice plant response rating: 1
[5]; [9]
  Rice plant response rating: 1
[5]; Rate 250 g/ha
  Plant response rating, Rice: 1
[6]; [8]
  Ducksalad plant response rating: 0
[6]; [9]
  Ducksalad plant response rating: 1
[6]; Rate 250 g/ha
  Plant response rating, Ducksalad: 2
